One experiment concerns MDA-MB-468. Briefly: Fluorometric resazurin-based cell proliferation assay, MDA-MB-468. The settings on record: Homo sapiens, read-out: IC50 MDA-MB-468. Here is the method: (§1) To evaluate the anti-proliferative and cytotoxic effect, respectively, of the compounds, a fluorometric resazurin-based cell viability assay was used. Human cancer and non-cancer cell lines (primarily breast cancer) were seeded with low densities into 96-well plates (1,500-20,000 cells per well), and were allowed to adhere for 24 h. Subsequently, the compounds—dissolved to appropriate concentrations in medium—were added to the cells and incubated for 4-72 h. In case the compound treatment was shorter than 72 h, the incubation solution was discarded, cells were rinsed once with cell culture medium and were allowed to proliferate in compound-free medium until 72 h were reached. Subsequently, medium was replaced by 50 μM resazurin in medium, and the cells were incubated for 2 h. Finally, the conversion of resazurin to resorufin by viable, metabolically active cells was measured using a Synergy 2 multiwell plate reader (BioTek, Bad Friedrichshall, Germany) with 540 nm excitation and 590 nm emission filter setting.
(§2) The cytostatic/cytotoxic effects of the new molecules according to this invention were evaluated by using a fluorometric cell proliferation assay. A panel of cell lines (most of them breast cancer) were treated for 4-72 hours with compound. The fluorometric read-out for cell viability was done after 72 hours in any case.
On the technique in general: Resazurin is reduced to fluorescent resorufin, in cell work by metabolically active cells.

Experiment [1] concerns breast cancer cell lines (MCF-7, MDA-MB-468). Briefly: Proteome analysis by SILAC. Type of experiment: cell-based, human. The settings on record: various breast cancer cell lines. The procedure: SILAC was used for the examination of compound-mediated protein deregulations in the cells. In a first step, the incorporation rate of ^13C-labeled L-arginine (“heavy” medium) was determined for the used cell lines.
After finished incubation, the cells were harvested and lysed. […] The gel was cut into gel slices and in-gel digested with trypsin. The samples were measured with a LTQ Orbitrap Velos (Thermo Scientific) coupled with a nano-HPLC. The resulting mass spec-data were analyzed using the MaxQuant software.

Experiment [2] concerns caspases 3 and 7 in breast cancer cell lines. Briefly: Apoptosis assay, effector caspases 3 and 7. The settings on record: several breast cancer cell lines. Type of experiment: cell-based, human.
Description: Compound-mediated induction of apoptosis was examined using comercially available luminescent caspase assays (Promega, Mannheim, Germany). Human cancer and non-cancer cell lines (primarily breast cancer) were seeded with densities depending on the incubation time into 96-well plates (5,000-20,000 cells per well for 48 h incubations; 15,000-40,000 cells per well for 16-24 h incubations), and were allowed to adhere for 24 h. Subsequently, the compounds—dissolved to appropriate concentrations in medium—were added to the cells in 70 μL per well. Cells were incubated for 16-48 h under standard growth conditions. For the last hour of incubation, 10 μL/well of 8× resazurin solution (400 μM) were added in order to multiplex the caspase activities with the cell number/cell viability. When the incubation was finished, conversion of resazurin to resorufin was measured as described above. […] Luminescence read-out was done using a Synergy 2 multiwell plate reader (BioTek, Bad Friedrichshall, Germany).
Cells were treated with the indicated compound concentrations for 24 h (A, C) and 48 h (B, D), respectively. Subsequently, activation of effector caspases 3/7 was measured using a luminescence-based caspase-Glo™ assay kit (Promega), and cell viability was fluorimetrically detected using a Resazurin-based cell viability assay. […]
Another experiment deals with 184B5. Briefly: Fluorometric resazurin-based cell proliferation assay, 184B5. The settings on record: Homo sapiens, 72 h compound treatment. The procedure: as §1, §2
For a further experiment, the system named is MDA-MB-231. Briefly: Fluorometric resazurin-based cell proliferation assay, MDA-MB-231. The settings on record: Homo sapiens. The procedure: as §1, §2
The test system of a further experiment is MCF-7. Briefly: cells. The settings on record: 72 h compound treatment. Type of experiment: cell-based, human. The procedure: as §1, §2
The next experiment has as its system T-47D. Briefly: Fluorometric resazurin-based cell proliferation assay, T-47D. Further details: species or system human. The settings on record: for IC50: Homo sapiens, T47D, read-out: IC50 T-47D. Here is the method:
as §1, §2

The next experiment deals with HT-29. Briefly: Fluorometric resazurin-based cell proliferation assay, HT-29. Further details: species or system human. The settings on record: 72 h compound treatment. Here is the method: as §1, §2
Another experiment relates to SK-N-MC. Briefly: Fluorometric resazurin-based cell proliferation assay, SK-N-MC. The settings on record: Homo sapiens, 72 h compound treatment. The procedure:
as §1, §2

A further experiment concerns HEK293. Briefly: Fluorometric resazurin-based cell proliferation assay, HEK293. The settings on record: Homo sapiens, 72 h compound treatment. The procedure:
as §1, §2

Experiment [3] deals with panel of cell lines (most of them breast cancer). Briefly: Cell proliferation assay, statements over the panel of cell lines. Type of experiment: cell-based, human. The settings on record: 72 h treatment. The procedure: as §1, §2
Where [4] appears, read: MDA-MB-231, 72 h, read-out: IC50 MDA-MB-231.

Where two headings read alike, the source gives them in different places.

In the case of `CCC(C)[C@H](NC(=O)[C@H]1CCCCN1C)C(=O)N(C)[C@H](C[C@@H](OC(C)=O)c1nc(C(=O)N[C@@H](Cc2ccc(F)cc2)C[C@H](C)C(=O)NCCSSc2ccccn2)cs1)C(C)C` (stereo partly drawn) [OC 169], the IC50 (in general, the concentration at which inhibition is half-maximal) in the experiment on MDA-MB-468 (MDA-MB-468, 72 h) worked out at 18.7 nM; with 184B5, 26.1 nM; in the experiment with MDA-MB-231 (setting [4]) it was 31 nM; with MCF-7 (Homo sapiens, MCF7), 18.4 nM; in the experiment with T-47D (72 h) it was 18.7 nM. In experiment [1], the “regulation of protein expression (SILAC)” value is given as “comparable protein regulations”. Moreover, the “induction of apoptosis (caspase 3/7 activity)” value in experiment [2] is reported as “induction of apoptotic cell death mechanisms”.

For `CCC(C)[C@H](NC(=O)[C@H]1CCCCN1C)C(=O)N(C)[C@H](C[C@@H](OC(C)=O)c1nc(C(=O)N[C@@H](Cc2ccc(F)cc2)C[C@H](C)C(=O)O)cs1)C(C)C` (stereo partly drawn) [OC 501], the IC50 with MDA-MB-468 (MDA-MB-468, 72 h) worked out at 3.6 nM; with MDA-MB-231 (setting [4]), 7.2 nM; in the experiment on MCF-7 (Homo sapiens, MCF7), 4.1 nM; in the experiment with T-47D (72 h), 5.4 nM; with HT-29 (Homo sapiens, HT-29), 1.2 nM.

Turning to `CCCO[C@H](C[C@H](C(C)C)N(C)C(=O)[C@@H](NC(=O)[C@H]1CCCCN1C)C(C)CC)c1nc(C(=O)N[C@@H](Cc2ccccc2)C[C@H](C)C(=O)O)cs1` (stereo partly drawn) [OC 503], the half-inhibitory concentration (IC50) with MDA-MB-468 (MDA-MB-468, 72 h) came to 8.2 nM; in the experiment on MDA-MB-231 (setting [4]), 10.9 nM; in the experiment on MCF-7 (Homo sapiens, MCF7), 4.2 nM; in the experiment with T-47D (72 h), 8.3 nM; in the experiment with HT-29 (Homo sapiens, HT-29) it was 0.8 nM.

Take `CCC(C)[C@H](NC(=O)[C@H]1CCCCN1C)C(=O)N(C)[C@H](C[C@@H](OC(C)=O)c1nc(C(=O)N[C@@H](Cc2ccccc2)C[C@H](C)C(=O)O)cs1)C(C)C` (stereo partly drawn) [OC 509]: the IC50 in the experiment with MCF-7 (Homo sapiens, MCF7) turned out to be 0.34 nM.

Take `CCCO[C@H](C[C@H](C(C)C)N(CCC)C(=O)[C@@H](NC(=O)[C@H]1CCCCN1C)C(C)CC)c1nc(C(=O)N[C@@H](Cc2ccc(O)cc2)C[C@H](C)C(=O)O)cs1` (stereo partly drawn) [OC 515]: the IC50 with 184B5 and in the experiment on T-47D (72 h) was 0.09 nM throughout. Also, in the experiment with T-47D (T-47D cells, 72 h treatment), the “higher efficacy compared to the reference compound Paclitaxel” value is given as “up to 300 fold”.

For `CCCO[C@H](C[C@H](C(C)C)N(CCC)C(=O)[C@@H](NC(=O)[C@H]1CCCCN1C)C(C)CC)c1nc(C(=O)N[C@@H](Cc2ccc(O)cc2)C[C@H](C)C(=O)NCCSSc2ccccn2)cs1` (stereo partly drawn) [OC 516], the IC50 in the experiment with T-47D (72 h) stood at 0.2 nM.

For the compound `CCC(C)[C@H](NC(=O)[C@H]1CCCCN1C)C(=O)N(COC(=O)CC(C)C)[C@H](C[C@@H](OC(C)=O)c1nc(C(=O)N[C@@H](Cc2ccc(O)cc2)C[C@H](C)C(=O)NCCSSc2ccccn2)cs1)C(C)C` (stereo partly drawn) [OC 517], the IC50 in the experiment on SK-N-MC came to 1.1 nM; in the experiment with MDA-MB-468 (MDA-MB-468, 72 h) it was 1 nM; in the experiment on 184B5, 6.2 nM; with HEK293, 5.9 nM; in the experiment on MDA-MB-231 (setting [4]) it was 1.6 nM; in the experiment on MCF-7 (Homo sapiens, MCF7), 1.9 nM. Besides, the IC50 in the experiment on T-47D (72 h) stood at 4.9 nM. Further, the “activity compared to Paclitaxel” value in [3] is listed as “several folds more active than Paclitaxel”.

`CC(=O)O[C@H]1C(=O)[C@@]2(C)[C@H]([C@H](OC(=O)c3ccccc3)[C@]3(O)C[C@H](OC(=O)[C@H](O)[C@@H](NC(=O)c4ccccc4)c4ccccc4)C(C)=C1C3(C)C)[C@]1(OC(C)=O)CO[C@@H]1C[C@@H]2O` [Paclitaxel, reference compound]: the IC50 in the experiment with MDA-MB-468 (MDA-MB-468, 72 h compound treatment) worked out at 31.1 nM; in the experiment with MDA-MB-231 (MDA-MB-231, read-out: IC50 MDA-MB-231, 72 h compound treatment) it was 35.1 nM; in the experiment with MCF-7 (Homo sapiens, MCF7) it was 25.5 nM; in the experiment with T-47D (72 h compound treatment), 30.7 nM.

For `CC[C@H](C)[C@H](NC(=O)[C@H]1CCCCN1C)C(=O)N(COC(=O)CC(C)C)[C@H](C[C@@H](OC(C)=O)c1nc(C(=O)N[C@@H](Cc2ccc(O)cc2)C[C@H](C)C(=O)O)cs1)C(C)C` [Tubulysin A, reference compound], the values for the IC50 with MCF-7 and in the experiment with HT-29 were 0.6 nM and 0.75 nM, respectively.
